Measured values reported in ChEMBL document CHEMBL4811321, “Synthesis and biological evaluation of 3,4-dihydro-1H-[1,4] oxazepino [6,5,4-hi] indol-1-ones and 4,6-dihydrooxepino [5,4,3-cd] indol-1(3H)-ones as Mycobacterium tuberculosis inhibitors” (Bioorg Med Chem, 2021).
Values after ≈ are worked out from the molar mass of the structure shown.

Target: not listed separately
Assay: Displacement of UDP-fluorescein from Mycobacterium tuberculosis UDP-galactopyranose mutase by fluorescence polarization assay
Conditions: not given

Question: With COc1ccc(C#C/C=C2\Cn3cc(I)c4cccc(c43)C(=O)O2)cc1 as the molecule, how does the Kd read?
Answer: 72.9 µM

Question: With O=C1O/C(=C/I)Cn2cc(I)c3cccc1c32 as the molecule, how does the Kd read?
Answer: 138 µM

System: Mycobacterium tuberculosis
Assay: Antitubercular activity against Mycobacterium tuberculosis mc2 6230 assessed as inhibition of bacterial growth incubated for 7 days by microtiter plate assay
Assay type: functional
Conditions: mc2 6230, 168 h, time 7 day

Question: Which MIC does the source give for COc1ccc(/C=C2\Cn3cc(I)c4cccc(c43)C(=O)O2)cc1 here?
Answer: > 100 µg/mL

Question: Which MIC does the source give for O=C1OC(CSc2ccccc2)Cc2cn(Cc3ccccc3)c3cccc1c23 (stereo not given) here?
Answer: > 100 µg/mL

Question: Which MIC does the source give for COc1ccccc1-c1cn(CC2Cc3cn(Cc4ccccc4)c4cccc(c34)C(=O)O2)nn1 (stereo not given) here?
Answer: > 100 µg/mL

Question: Which MIC does the source give for O=C1O/C(=C/C#Cc2ccccc2)Cn2cc(I)c3cccc1c32 here?
Answer: 0.4 µg/mL (≈ 0.941 µM)

Question: With CC(C)CCC#C/C=C1\Cn2cc(I)c3cccc(c32)C(=O)O1 as the molecule, how does the MIC read?
Answer: 0.2 µg/mL (≈ 0.477 µM)

Question: With O=C1OC(CI)Cc2cn(Cc3ccccc3)c3cccc1c23 (stereo not given) as the molecule, how does the MIC read?
Answer: 12.5 µg/mL (≈ 30 µM)

Question: Which MIC does the source give for O=C1OC(Cn2cc(-c3ccccc3F)nn2)Cc2cn(Cc3ccccc3)c3cccc1c23 (stereo not given) here?
Answer: > 100 µg/mL

Question: With CCCCc1cn(CC2Cc3cn(Cc4ccccc4)c4cccc(c34)C(=O)O2)nn1 (stereo not given) as the molecule, how does the MIC read?
Answer: > 100 µg/mL

Question: For O=C1OC(Cn2cc(CCBr)nn2)Cc2cn(Cc3ccccc3)c3cccc1c23 (stereo not given), which MIC is on record?
Answer: 25 µg/mL (≈ 53.7 µM)

Question: With COc1cccc(SCC2Cc3cn(Cc4ccccc4)c4cccc(c34)C(=O)O2)c1 (stereo not given) as the molecule, how does the MIC read?
Answer: > 100 µg/mL

Question: For O=C1OC(Cn2cc(-c3ccc(F)cc3F)nn2)Cc2cn(Cc3ccccc3)c3cccc1c23 (stereo not given), which MIC is on record?
Answer: > 100 µg/mL

Question: With CCOC(=O)CCCc1cn(CC2Cc3cn(Cc4ccccc4)c4cccc(c34)C(=O)O2)nn1 (stereo not given) as the molecule, how does the MIC read?
Answer: > 100 µg/mL

Question: For COc1ccc(C#C/C=C2\Cn3cc(I)c4cccc(c43)C(=O)O2)cc1, which MIC is on record?
Answer: 0.2 µg/mL (≈ 0.439 µM)

Question: Which MIC does the source give for CC(C)CCc1cn(CC2Cc3cn(Cc4ccccc4)c4cccc(c34)C(=O)O2)nn1 (stereo not given) here?
Answer: > 100 µg/mL

Question: With CCCCCCCc1cn(CC2Cc3cn(Cc4ccccc4)c4cccc(c34)C(=O)O2)nn1 (stereo not given) as the molecule, how does the MIC read?
Answer: > 100 µg/mL

Question: With COc1ccc(-c2cn(CC3Cc4cn(Cc5ccccc5)c5cccc(c45)C(=O)O3)nn2)cc1 (stereo not given) as the molecule, how does the MIC read?
Answer: > 100 µg/mL

Question: Which MIC does the source give for CCOC(=O)CCCC#C/C=C1\Cn2cc(I)c3cccc(c32)C(=O)O1 here?
Answer: 0.4 µg/mL (≈ 0.863 µM)

Question: For O=C1O/C(=C/I)Cn2cc(I)c3cccc1c32, which MIC is on record?
Answer: 1.6 µg/mL (≈ 3.55 µM)

Question: Which MIC does the source give for O=C1OC(Cn2cc(C3CC3)nn2)Cc2cn(Cc3ccccc3)c3cccc1c23 (stereo not given) here?
Answer: > 100 µg/mL

Question: For O=C1OC(Cn2cc(-c3ccccc3)nn2)Cc2cn(Cc3ccccc3)c3cccc1c23 (stereo not given), which MIC is on record?
Answer: > 100 µg/mL

Question: With CN(Cc1cn(CC2Cc3cn(Cc4ccccc4)c4cccc(c34)C(=O)O2)nn1)S(C)(=O)=O (stereo not given) as the molecule, how does the MIC read?
Answer: > 100 µg/mL

Question: With CCCCC#C/C=C1\Cn2cc(I)c3cccc(c32)C(=O)O1 as the molecule, how does the MIC read?
Answer: 0.4 µg/mL (≈ 0.987 µM)

Question: For COc1ccccc1SCC1Cc2cn(Cc3ccccc3)c3cccc(c23)C(=O)O1 (stereo not given), which MIC is on record?
Answer: > 100 µg/mL
